{"source": "paper PMC9186351", "about": "“Discovery of N-quinazolinone-4-hydroxy-2-quinolone-3-carboxamides as DNA gyrase B-targeted antibacterial agents” (Journal of Enzyme Inhibition and Medicinal Chemistry, 2022)", "key": {"S. aureus GyrB": {"target": "T1, S. aureus GyrB (Staphylococcus aureus, UniProt P0A0K8)", "T1 construct": "purchased Inspiralis Ltd., Norwich, UK", "T1 sequence (P0A0K8 whole entry)": "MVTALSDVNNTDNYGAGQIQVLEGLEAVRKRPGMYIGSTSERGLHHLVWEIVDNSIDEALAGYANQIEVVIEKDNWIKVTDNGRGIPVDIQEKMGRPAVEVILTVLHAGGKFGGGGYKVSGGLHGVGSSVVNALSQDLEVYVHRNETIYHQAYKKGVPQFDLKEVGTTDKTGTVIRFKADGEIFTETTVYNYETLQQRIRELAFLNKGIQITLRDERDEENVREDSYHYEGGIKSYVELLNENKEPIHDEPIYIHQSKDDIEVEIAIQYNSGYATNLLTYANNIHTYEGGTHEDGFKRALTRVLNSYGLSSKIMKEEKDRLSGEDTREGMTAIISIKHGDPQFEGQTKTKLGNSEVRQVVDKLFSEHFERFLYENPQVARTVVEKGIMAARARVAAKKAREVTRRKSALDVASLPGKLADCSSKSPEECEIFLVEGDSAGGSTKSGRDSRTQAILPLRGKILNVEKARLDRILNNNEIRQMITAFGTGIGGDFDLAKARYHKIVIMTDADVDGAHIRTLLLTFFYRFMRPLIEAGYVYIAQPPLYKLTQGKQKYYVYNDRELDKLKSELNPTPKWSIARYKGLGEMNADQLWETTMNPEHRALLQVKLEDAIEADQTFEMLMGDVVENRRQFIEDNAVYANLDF", "T1 sequence (P20831 whole entry, further chain)": "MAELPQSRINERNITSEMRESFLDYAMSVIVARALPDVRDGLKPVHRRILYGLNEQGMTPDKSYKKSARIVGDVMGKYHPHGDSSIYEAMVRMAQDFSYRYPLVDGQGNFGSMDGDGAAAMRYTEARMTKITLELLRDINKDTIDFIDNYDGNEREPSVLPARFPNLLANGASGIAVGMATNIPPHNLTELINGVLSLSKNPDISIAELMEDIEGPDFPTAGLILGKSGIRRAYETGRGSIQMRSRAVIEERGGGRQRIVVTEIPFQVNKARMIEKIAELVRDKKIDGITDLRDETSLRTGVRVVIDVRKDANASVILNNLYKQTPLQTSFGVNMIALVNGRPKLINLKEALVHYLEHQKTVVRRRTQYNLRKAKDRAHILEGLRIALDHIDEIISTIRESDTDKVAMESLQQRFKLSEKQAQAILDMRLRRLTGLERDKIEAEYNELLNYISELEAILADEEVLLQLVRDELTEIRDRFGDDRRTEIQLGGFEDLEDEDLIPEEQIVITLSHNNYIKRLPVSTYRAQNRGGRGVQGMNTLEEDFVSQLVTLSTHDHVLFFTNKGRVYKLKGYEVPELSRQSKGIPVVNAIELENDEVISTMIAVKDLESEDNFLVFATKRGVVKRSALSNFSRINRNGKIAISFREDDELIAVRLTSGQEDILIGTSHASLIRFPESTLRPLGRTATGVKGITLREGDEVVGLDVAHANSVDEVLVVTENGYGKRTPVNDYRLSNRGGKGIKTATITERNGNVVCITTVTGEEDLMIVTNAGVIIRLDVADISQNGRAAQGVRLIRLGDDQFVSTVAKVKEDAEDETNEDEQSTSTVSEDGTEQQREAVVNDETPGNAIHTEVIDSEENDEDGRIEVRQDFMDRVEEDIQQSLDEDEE", "test": "S. aureus GyrB (Gyrase ATPase) inhibition assay, ADP-Glo", "assay_type": "biochemical", "procedure": "The IC50 values for S. aureus GyrB were determined according to our previously reported protocol.[16] For this assay, the reaction mixture (10 μL) consisted of 5 nM S. aureus Gyrase (Inspiralis Ltd., Norwich, UK), assay buffer [40 mM HEPES-KOH (pH 7.6), 10 mM magnesium acetate, 10 mM dithiothreitol, 50 g/L BSA, and 500 mM potassium glutamate], the test compound (0.01–100 μM), 1% DMSO, 10 nM linear pBR322 DNA, and […]. The target compound was dissolved in DMSO (10 mM). A series of dilutions (0.1–1000 μM) were prepared from the stock solution with the assay buffer and DMSO. The dilutions (1 μL) were respectively added to the PCR tubes along with the buffer (7 μL), the linear pBR322 DNA (0.5 μL), S. aureus Gyrase (0.5 μL), and ATP (1 μL). The PCR tubes were sealed and incubated at 37 °C for 30 min. The ADP-Glo reagent (40 μL) was added to stop the reaction and use up the remaining ATP.\nThe detection reagent (50 μL) was then added and mixed. After 5 min, the mixture in each PCR tube was put in the well of a 96-well plate and its luminescence was measured by the BioTek Synergy 2 microplate reader. The activity values (%) of S. aureus Gyrase treated by the test compound at different concentrations were determined based on the luminescence. GraphPad Prism version 5 software (GraphPad Software Inc., La Jolla, CA) was used to calculate the IC50 values."}, "[1]": {"test": "Cytotoxicity, SRB assay, HUVEC", "assay_type": "cell-based, human", "settings": "human, HUVEC cells, 72-h treatment (footnote), read-out: In vitro cytotoxicity CC50 (μM, mean ± SD)", "procedure": "(§1) Cytotoxicity in terms of CC50 was determined by the SRB assay according to the protocol described in our previous publication.[16] Briefly, human HUVECs or HepG2 cells were seeded in the wells of 96-well plates at a concentration of 1 × 10^5 cells per well and incubated at 37 °C for 24 h. […] The cells were fixed with 10% trichloroacetic acid (w/v) at 4 °C for 1 h, washed five times with distilled water, and stained with 0.4% SRB solution at room temperature for another 20 min. The cells were then washed five times with 1% acetic acid and air-dried. The protein-bound dye was dissolved in 10 mM Tris-base solution and shaken for 5 min. The optical density (OD) was measured at 540 nm using a microplate reader to estimate the cell viability (%). With the viability values (%) of the cells treated by the compound at different concentrations as input, the CC50 value was determined by the non-linear regression with normalised dose-response fit implemented in GraphPad Prism version 5 software (GraphPad Software Inc., La Jolla, CA). The experiment was performed in duplicate, and paclitaxel was used as the positive drug for this assay."}, "HUVECs": {"test_system": "HUVECs", "test": "Cytotoxicity, SRB assay, HUVEC", "assay_type": "cell-based, human", "settings": "72-h treatment (footnote), read-out: In vitro cytotoxicity CC50 (μM, mean ± SD)", "procedure": "as §1"}}, "data": [{"smiles": "CCCCCc1nc2ccccc2c(=O)n1NC(=O)c1c(O)c2ccccc2n(CC)c1=O", "note": "[f1, N-(4-oxo-2-pentylquinazolin-3(4H)-yl)-1-ethyl-4-hydroxy-2-oxo-1,2-dihydroquinoline-3-carboxamide]", "values": [{"measurement": "IC50", "setting": "S. aureus GyrB; IC50 for GyrB (µM, mean ± SD), S. aureus Gyrase ATPase inhibition, average of duplicates", "result": "1.21 ± 0.13", "unit": "µM"}, {"measurement": "inhibition at 10 µM", "setting": "S. aureus GyrB; read-out: GyrB inhibition rate (%) at 10 μM", "result": 72, "unit": "%"}, {"measurement": "CC50 at 72 h", "setting": "[1]", "result": "~50", "unit": "µM"}, {"measurement": "CC50", "setting": "HUVECs", "result": "51.5 ± 4.5", "unit": "µM"}]}]}
